The values that follow come from PMC8037810, “L-Glutaminase Synthesis by Marine Halomonas meridiana Isolated from the Red Sea and Its Efficiency against Colorectal Cancer Cell Lines” (Molecules, 2021).

Structures are written as SMILES.

For the test, the system named is T1, L-glutaminase.
T1 construct: gene glsA; native enzyme purified from culture supernatant (ammonium sulfate, Sephadex G-200); about 57 kDa by SDS-PAGE
In words: Nesslerization of released ammonia; Lineweaver-Burk plot. It is filed as biochemical, Vreelandella aquamarina. To be noted: Tris buffer, 37 °C; pH of kinetic assay not stated (general assay pH 7, optimum pH 8.0); assayed L-glutamine 0.01-0.8 M, far above the printed Km.

As a reminder, the Km is the substrate concentration at which the rate is half of its maximum. `NC(=O)CC[C@H](N)C(=O)O` [L-glutamine]: the Km worked out at 12.2 µM.
